Measured values published in patent publication US20090221547A1, “Immunosuppressant Compounds and Compositions” (IRM LLC, priority 2005, published 2009).

What was measured:
[1] = test system: peripheral blood lymphocytes; test: Blood lymphocyte depletion, measurement of circulating lymphocytes; type: in vivo; conditions: Rattus norvegicus, Lewis rats, oral gavage 0.01-5 mg/kg, blood 6 and 48 hours after administration, read-out: ED50, effective dose required displaying 50% of blood lymphocyte depletion
Description: C. In vivo: Screening Assays for Measurement of Blood Lymphocyte Depletion
Measurements of circulating lymphocytes: Compounds are dissolved in DMSO and PEG300 and diluted to obtain a final concentration of 2% DMSO and 2% PEG300 (v/v, final concentration). Lewis rats are administered compound solution orally by gavages at 0.01-5 mg/kg under short isoflurane anesthesia.
Blood is collected from the retro-orbital sinus 6 and 48 hours after drug administration under short isoflurane anesthesia. Whole blood samples are subjected to hematology analysis. Peripheral lymphocyte counts are determined using an automated analyzer. Subpopulations of peripheral blood lymphocytes are stained by fluorochrome-conjugated specific antibodies and analyzed using a fluorescent activating cell sorter (Facscalibur). Two to three rats are used to assess the lymphocyte depletion activity of each compound screened. The result is an ED50, which is defined as the effective dose required displaying 50% of blood lymphocyte depletion.

[2] = test system: EDG-3, EDG-5, EDG-6 and EDG-8; test: EDG-3, -5, -6 and -8 GTP [γ-35S] binding assays (SPA), CHO or RH7777 membranes; type: biochemical, human
Description: (§1) A. In vitro: A scintillation proximity assay (SPA) for measuring GTP [γ-^35S] binding to membranes prepared from CHO cells expressing human EDG/S1P receptors.
EC50 values are obtained by fitting the GTP [γ-^35S] binding curves (raw data) with the dose response curve-fitting tool of ORIGIN V. 6.1. Basal binding (no compound) and the highest stimulation of GTP [γ-^35S] binding achieved by an agonist are used as the fitting range. Seven different concentrations are used to generate a concentration response curve (using two or three data points per concentration).
Concentrations of EDG receptor expressing membranes range between 13-19 μg per well. […] For example, 5-[4-(2′-fluoro-2-trifluoromethyl-biphenyl-4-yloxymethyl)-phenyl]-pyridine-2-carboxylic acid has an EC50 of 0.9 nM in the above assay and is at least 500 fold selective for EDG-1 compared to one or more of the other receptors including EDG-3, EDG-5, EDG-6 and EDG-8.

[3] = molecular target: T1, human EDG-1 (Homo sapiens, UniProt P21453); test: EDG-1 (S1P1) GTP [γ-35S] binding assay (SPA), membranes of CHO cells; type: biochemical; conditions: membranes from CHO cells expressing human EDG-1
T1 construct: c-myc (N); expressed in transfected cells; host or cells: CHO cell clones (membrane preparation)
Description: as §1
EDG-1 (S1P1) GTP [γ-^35S] binding assay: Membrane protein suspensions are prepared from CHO cell clones stably expressing a human EDG-1 N-terminal c-myc tag. Solutions of test compounds ranging from 10 mM to 0.0 nM are prepared in DMSO/50 mM HCl and then diluted into assay buffer (20 mM HEPES, pH7.4, 100 mM NaCl, 10 mM MgCl2, 0.1% fat free BSA). Assay buffer-containing […] is mixed with wheat-germ agglutinin-coated SPA-beads (1 mg/well) followed by the addition of human EDG-1 membrane protein suspension (10 μg/well) and test compound. The bead/membrane/compound assay components are then mixed for 10-15 minutes on a shaker at room temperature. GTP [γ-^35S] (200 pM) and bead/membrane/compound assay mixture are added to individual wells of a 96 well Optiplate™ (final volume 225 μl/well), sealed and incubated at room temperature for 110 to 120 minutes under constant shaking. After centrifugation (2000 rpm, 10 minutes) luminescence is measured with a TopCount™ instrument.
EC50 values are obtained by fitting the GTP [γ-^35S] binding curves (raw data) with the dose response curve-fitting tool of ORIGIN V. 6.1. […]

T1 sequence (P21453 whole entry): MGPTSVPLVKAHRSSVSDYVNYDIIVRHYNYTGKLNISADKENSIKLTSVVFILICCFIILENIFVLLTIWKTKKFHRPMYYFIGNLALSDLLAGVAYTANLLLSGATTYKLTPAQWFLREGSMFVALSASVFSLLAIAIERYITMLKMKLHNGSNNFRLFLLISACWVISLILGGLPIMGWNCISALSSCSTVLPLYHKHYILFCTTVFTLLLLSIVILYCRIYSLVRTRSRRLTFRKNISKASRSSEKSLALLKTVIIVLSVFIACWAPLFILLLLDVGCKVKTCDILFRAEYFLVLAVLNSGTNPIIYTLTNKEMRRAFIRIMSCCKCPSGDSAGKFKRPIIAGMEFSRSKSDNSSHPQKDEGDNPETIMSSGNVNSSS

Compound: O=C(O)c1ccc(-c2ccc(COc3ccc(-c4ccccc4F)c(C(F)(F)F)c3)cc2)cn1 [Example 1, 5-[4-(2′-Fluoro-2-trifluoromethyl-biphenyl-4-yloxymethyl)-phenyl]-pyridine-2-carboxylic acid]
- ED50 [1]: 0.3 mg/kg
- fold selective for EDG-1 compared to one or more of the other receptors including EDG-3, EDG-5, EDG-6 and EDG-8 [2]: at least 500 fold
- EC50 [3]: 0.9 nM
